In US20150126530A1, “Novel Substituted Imidazopyrimidines as Gpbar1 Receptor Modulators” (Torrent Pharmaceuticals Limited., priority 2011, published 2015):

target: T1, human TGR5 (Homo sapiens, UniProt Q8TDU6); assay: cAMP Responsive Element (CRE)-Reporter Assay; assay type: cell-based; conditions: luciferase activity relative to vehicle control, five hours, CHO cells transfected with human TGR5 and CRE-luciferase
T1 construct: host or cells: CHO cells (ATCC)
T1 sequence (Q8TDU6 1-330): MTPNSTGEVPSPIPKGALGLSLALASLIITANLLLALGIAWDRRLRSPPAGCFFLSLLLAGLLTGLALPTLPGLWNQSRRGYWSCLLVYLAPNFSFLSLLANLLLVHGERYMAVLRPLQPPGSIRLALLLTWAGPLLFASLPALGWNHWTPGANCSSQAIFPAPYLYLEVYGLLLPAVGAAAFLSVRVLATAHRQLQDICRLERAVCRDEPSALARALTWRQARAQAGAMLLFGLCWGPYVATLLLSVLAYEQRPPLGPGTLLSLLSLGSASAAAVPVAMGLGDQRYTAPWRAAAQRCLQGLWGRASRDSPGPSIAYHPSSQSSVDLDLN
Description: (A) cAMP Responsive Element (CRE)-Reporter Assay:
CHO cells (ATCC) were transfected with human TGR5 (oriGene) and CRE-luciferase reporter vector. Transfected cells were treated with vehicle control or test compounds (Conc 10 μM) for five hours and then lysed. Cell lysates were monitored for luciferase acivity. Increase in luciferase activity is considered as a result of TGR5 activation. Results were expressed as fold induction as compared to vehicle control.
Results are summarized in Table 2 where, + indicates 1.5-2 fold while ++, +++, ++++ indicate 2-3 fold, 3-4 fold, and >4 fold induction respectively relative to vehicle control when tested at 10 μM concentration.

fold induction at 10 µM	Compound
1.5 to 2	CN(C(=O)c1c(-c2ccccn2)nc2ncccn12)c1ccc(Cl)cc1 [Compound no. 11, N-(4-chlorophenyl)-N-methyl-2-(pyridin-2-yl)imidazo[1,2-a]pyrimidine-3-carboxamide]
2 to 3	CN(C(=O)c1c(-c2ccc(Cl)cc2)nc2ncccn12)c1ccc(S(=O)(=O)N(C)C)cc1 [compound 24, 2-(4-chlorophenyl)-N-[4-(dimethylsulfamoyl)phenyl]-N-methylimidazo[1,2-a]pyrimidine-3-carboxamide]
3 to 4	CN(C(=O)c1c(-c2ccc(F)cc2)nc2ncccn12)c1ccc2c(c1)CCC2 [Compound no. 6, N-(2,3-dihydro-1H-inden-5-yl)-2-(4-fluorophenyl)-N-methylimidazo[1,2-a]pyrimidine-3-carboxamide]
2 to 3	CN(C(=O)c1c(-c2ccccc2)nc2ncc(-c3ccccc3)cn12)c1ccc(Cl)cc1 [compound 12, N-(4-chlorophenyl)-N-methyl-2,6-diphenylimidazo[1,2-a]pyrimidine-3-carboxamide]
2 to 3	CN(C(=O)c1c(-c2ccc(-c3ccccc3)cc2)nc2ncccn12)c1ccc2c(c1)CCC2 [compound 9, 2-(biphenyl-4-yl)-N-(2,3-dihydro-1H-inden-5-yl)-N-methylimidazo[1,2-a]pyrimidine-3-carboxamide]
3 to 4	O=C(c1c(-c2ccc(F)cc2)nc2ncccn12)N(c1ccc(Cl)cc1)C1CC1 [compound 136, N-(4-chlorophenyl)-N-cyclopropyl-2-(4-fluorophenyl)imidazo[1,2-a]pyrimidine-3-carboxamide]
3 to 4	CN(C(=O)c1c(-c2cccc(C(F)(F)F)c2)nc2ncccn12)c1ccc(Cl)cc1 [compound 31, N-(4-chlorophenyl)-N-methyl-2-[3-(trifluoromethyl)phenyl]imidazo[1,2-a]pyrimidine-3-carboxamide]
3 to 4	CN(C(=O)c1c(-c2ccc3c(c2)OCO3)nc2ncccn12)c1ccc(Cl)cc1 [compound 29, 2-(1,3-benzodioxol-5-yl)-N-(4-chlorophenyl)-N-methylimidazo[1,2-a]pyrimidine-3-carboxamide]
1.5 to 2	CN(C(=O)c1c(-c2ccc(S(=O)(=O)N(C)C)cc2)nc2ncccn12)c1ccc(Cl)cc1 [compound 37, N-(4-chlorophenyl)-2-[4-(dimethylsulfamoyl)phenyl]-N-methylimidazo[1,2-a]pyrimidine-3-carboxamide]
1.5 to 2	CN(C(=O)c1c(-c2ccc(S(=O)(=O)N(C)C)cc2)nc2ncccn12)c1ccc(F)cc1 [compound 38, 2-[4-(dimethylsulfamoyl)phenyl]-N-(4-fluorophenyl)-N-methylimidazo[1,2-a]pyrimidine-3-carboxamide]
1.5 to 2	CN(C(=O)c1c(-c2ccccc2)nc2ncccn12)c1ccc(CC(=O)O)cc1 [Compound no. 3, (4-{methyl[(2-phenylimidazo[1,2-a]pyrimidin-3-yl)carbonyl]amino}phenyl)acetic acid]
> 4	COc1ccc(-c2nc3ncccn3c2C(=O)N(C)c2ccc(F)c(Cl)c2)cc1F [compound 45, N-(3-chloro-4-fluorophenyl)-2-(3-fluoro-4-methoxyphenyl)-N-methylimidazo[1,2-a]pyrimidine-3-carboxamide]
2 to 3	CN(C(=O)c1c(-c2ccc(F)cc2)nc2ncccn12)c1ccc(F)cc1F [compound 40, N-(2,4-difluorophenyl)-2-(4-fluorophenyl)-N-methylimidazo[1,2-a]pyrimidine-3-carboxamide]
1.5 to 2	O=C(Nc1ccc(Cl)cc1)c1c(-c2ccc(F)cc2)nc2ncccn12 [compound 32, N-(4-chlorophenyl)-2-(4-fluorophenyl)imidazo[1,2-a]pyrimidine-3-carboxamide]
3 to 4	COc1ccc(-c2nc3ncccn3c2C(=O)N(C)c2ccc3c(c2)CCC3)cc1OC [compound 13, N-(2,3-dihydro-1H-inden-5-yl)-2-(3,4-dimethoxyphenyl)-N-methylimidazo[1,2-a]pyrimidine-3-carboxamide]
3 to 4	CN(C(=O)c1c(-c2ccccc2C(F)(F)F)nc2ncccn12)c1ccc(Cl)cc1 [compound 23, N-(4-chlorophenyl)-N-methyl-2-[2-(trifluoromethyl)phenyl]imidazo[1,2-a]pyrimidine-3-carboxamide]
2 to 3	CN(C(=O)c1c(-c2cccnc2)nc2ncccn12)c1ccc(Cl)cc1 [compound 20, N-(4-chlorophenyl)-N-methyl-2-(pyridin-3-yl)imidazo[1,2-a]pyrimidine-3-carboxamide]

fold induction at 10 µM	Compound
3 to 4	CN(C(=O)c1c(-c2ccc(Cl)cc2)nc2ncccn12)c1ccc2c(c1)CCC2 [Compound no. 4, 2-(4-chlorophenyl)-N-(2,3-dihydro-1H-inden-5-yl)-N-methylimidazo[1,2-a]pyrimidine-3-carboxamide]
2 to 3	CN(C(=O)c1c(-c2ccccc2)nc2ncccn12)c1ccc(F)cc1 [compound 26, N-(4-fluorophenyl)-N-methyl-2-phenylimidazo[1,2-a]pyrimidine-3-carboxamide]
3 to 4	COc1ccc(-c2nc3ncccn3c2C(=O)N(C)c2ccc(Cl)cc2)cc1F [compound 44, N-(4-chlorophenyl)-2-(3-fluoro-4-methoxyphenyl)-N-methylimidazo[1,2-a]pyrimidine-3-carboxamide]
3 to 4	COc1ccc(-c2nc3ncccn3c2C(=O)N(C)c2ccc(Cl)cc2)cc1OC [compound 10, N-(4-chlorophenyl)-2-(3,4-dimethoxyphenyl)-N-methylimidazo[1,2-a]pyrimidine-3-carboxamide]
3 to 4	COc1ccc(Oc2nc3ncccn3c2C(=O)N(C)c2ccc(Cl)cc2)cc1 [compound 49, N-(4-chlorophenyl)-2-(4-methoxyphenoxy)-N-methylimidazo[1,2-a]pyrimidine-3-carboxamide]
2 to 3	CN(C(=O)c1c(-c2ccc(O)c(F)c2)nc2ncccn12)c1ccc(F)cc1 [compound 42, 2-(3-fluoro-4-hydroxyphenyl)-N-(4-fluorophenyl)-N-methylimidazo[1,2-a]pyrimidine-3-carboxamide]
3 to 4	CN(C(=O)c1c(-c2ccc(Cl)c(Cl)c2)nc2ncccn12)c1ccc(Cl)cc1 [compound 14, N-(4-chlorophenyl)-2-(3,4-dichlorophenyl)-N-methylimidazo[1,2-a]pyrimidine-3-carboxamide]
2 to 3	CN(C(=O)c1c(Oc2ccc(Cl)cc2)nc2ncccn12)c1ccc(Cl)cc1 [compound 48, 2-(4-chlorophenoxy)-N-(4-chlorophenyl)-N-methylimidazo[1,2-a]pyrimidine-3-carboxamide]
3 to 4	CN(C(=O)c1c(-c2ccc(-c3ccccc3)cc2)nc2ncccn12)c1ccc(Cl)cc1 [compound 8, 2-(biphenyl-4-yl)-N-(4-chlorophenyl)-N-methylimidazo[1,2-a]pyrimidine-3-carboxamide]
3 to 4	CN(C(=O)c1c(-c2ccc(Cl)cc2Cl)nc2ncccn12)c1ccc(F)cc1 [compound 21, 2-(2,4-dichlorophenyl)-N-(4-fluorophenyl)-N-methylimidazo[1,2-a]pyrimidine-3-carboxamide]
2 to 3	COc1ccc(-c2nc3ncccn3c2C(=O)N(C)c2ccc(F)cc2)cc1F [compound 41, 2-(3-fluoro-4-methoxyphenyl)-N-(4-fluorophenyl)-N-methylimidazo[1,2-a]pyrimidine-3-carboxamide]
3 to 4	COc1ccc(N(C)C(=O)c2c(Oc3ccc(F)cc3)nc3ncccn23)cc1 [compound 52, 2-(4-fluorophenoxy)-N-(4-methoxyphenyl)-N-methylimidazo[1,2-a]pyrimidine-3-carboxamide]
2 to 3	CN(C(=O)c1c(Oc2ccc(Cl)cc2)nc2ncccn12)c1ccc(F)cc1 [compound 51, 2-(4-chlorophenoxy)-N-(4-fluorophenyl)-N-methylimidazo[1,2-a]pyrimidine-3-carboxamide]
1.5 to 2	CN(C(=O)c1c(-c2ccc(Cl)cc2)nc2ncccn12)c1ccc(O)c(O)c1 [compound 27, 2-(4-chlorophenyl)-N-(3,4-dihydroxyphenyl)-N-methylimidazo[1,2-a]pyrimidine-3-carboxamide]
3 to 4	CN(C(=O)c1c(Oc2ccccc2)nc2ncccn12)c1ccc(Cl)cc1 [compound 47, N-(4-chlorophenyl)-N-methyl-2-phenoxyimidazo[1,2-a]pyrimidine-3-carboxamide]
3 to 4	CN(C(=O)c1c(-c2ccccc2)nc2ncccn12)c1cccc(Cl)c1 [Compound no. 2, N-(3-chlorophenyl)-N-methyl-2-phenylimidazo[1,2-a]pyrimidine-3-carboxamide]
1.5 to 2	COc1ccc(NC(=O)c2c(-c3ccc(F)cc3)nc3ncccn23)c(OC)c1 [compound 34, N-(2,4-dimethoxyphenyl)-2-(4-fluorophenyl)imidazo[1,2-a]pyrimidine-3-carboxamide]
